Assay results: patent publication US20130217050A1, “METHOD FOR DIAGNOSING ALZHEIMER'S DISEASE USING-SOLUBLE GPVI” (MOCHIDA PHARMACEUTICAL CO., LTD., priority 2010, published 2013)

Test system: washed monkey platelets
Assay: sGPVI production mechanism using monkey washed platelets
Format: cell-based
Conditions: stimulating agent added to washed platelet suspension with calcium chloride, 37° C. for 1 hour; sGPVI in supernatant by ELISA; compared with control group without stimulating agent (FIG. 8)
Protocol: Human serum and human plasma were prepared by a 100-fold or more dilution with 0.1% BSA, 0.05% Tween 20, and 0.3 M NaCl/D-PBS and added to the F1232-7-1-immobilized plate to incubate at 28° C. for 2 hours. In addition, a recombinant human sGPVI-His that was expressed and purified by Free Style 293 Expression System (manufactured by Invitrogen) was used as the reference material. After the reaction incubation, the plate was washed with physiological saline containing 0.05% Tween 20. F1232-10-2 Fab′-HRP prepared in Example 1 as a secondary labeled antibody was diluted 100-fold with 2% rat serum and 0.05% Tween 20/D-PBS and added to the well to incubate at 28° C. for 1 hour. After washing the plate, tetramethylbenzidine (hereinafter described as TMB) that was returned to room temperature was added, and incubated for 10 minutes. After stopping the reaction by the addition of 0.5 M sulfuric acid, the absorbance at 450 nm was measured using a microplate reader SpectraMax (manufactured by Molecular Devices), and the absorbance at 650 nm was subtracted as a reference. The resulting absorbance was analyzed using a microplate data analysis software (SoftMax Pro 5.2, manufactured by Molecular Devices). In addition, the data was expressed in terms of mean±standard error (SE) in principle.
Whole blood was collected from the monkey's leg vein using sodium citrate as an anticoagulant. Platelet-rich plasma (hereinafter described as PRP) was prepared by centrifuging the obtained whole blood at 900 rpm×10 minutes, and only PRP fraction was separated gently by PIPETMAN to transfer it to a new tube. The PRP was centrifuged at 2000 rpm×10 minutes at room temperature to precipitate the platelets. […] The number of platelets was counted by Sysmex F-820 (To a Medical Electronics Co., Ltd.), and the platelet count was adjusted to 40.0×10^7/ml. […]
The production of sGPVI was examined by adding various stimulating agents such as collagen, sAβ, or fAβ, to monkey washed platelets. […] The concentration of sGPVI in the reaction mixture was measured by the ELISA method as described in Example 2.

Substance	production of sGPVI
sAβ: Aβ1-42 (AnaSpec Inc) just after diluted in D-PBS, used as soluble amyloid β	production of sGPVI was not observed
fibril Aβ: Aβ1-42 incubated at room temperature for one week after the dilution in D-PBS, used as fibril amyloid β	production of sGPVI was observed
collagen	production of sGPVI was observed
